Results from ChEMBL document CHEMBL1201862, “PubChem BioAssay data set” (2004).
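Test compounds were applied to cells in 96-well plates for 48 hours at 5 doses. GI50 marks 50% less growth.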 Active and inactive are the calls of the source. Rule as the data show it: active = GI50 up to about 1.1 µM and inactive = higher. *1 amine or outer side, *2 acyl side, *3 side chain or, on linkers, in order; H or OH if unused. Where a SMILES comes first, the peptide text is derived from it. [ ]: non-standard residue; d: D form. The star is where a group is joined. X31 = CC(=O)N(C)SCC(N[*:1])C(=O)[*:2]; Fmoc = O=C(OCC1c2ccccc2-c2ccccc21)*; For = O=C*

Experiments:
Assay in all cases: inhibition of tumour cell growth, NCI panel, 48 h
[1] = tested on: SNB-75
[2] = tested on: SK-MEL-28
[3] = tested on: SF-268
[4] = tested on: SW-620
[5] = tested on: HOP-92
[6] = tested on: UO-31
[7] = tested on: RXF 393
[8] = tested on: SN12C
[9] = tested on: CAKI-1
[10] = tested on: CCRF-CEM
[11] = tested on: SK-OV-3
[12] = tested on: IGROV-1
[13] = tested on: DU-145
[14] = tested on: NCI-H23
[15] = tested on: SK-MEL-2
[16] = tested on: HCT-15
[17] = tested on: NCI-H522
[18] = tested on: Hs-578T
[19] = tested on: LOX IMVI

Row | SMILES | GI50 [1] | GI50 [2] | GI50 [3] | GI50 [4] | GI50 [5] | GI50 [6] | GI50 [7] | GI50 [8] | GI50 [9] | GI50 [10] | GI50 [11] | GI50 [12] | GI50 [13] | GI50 [14] | GI50 [15] | GI50 [16] [µM] | GI50 [17] | GI50 [18] | GI50 [19]
1 | O=C(O)CN1CCNCCN(CP(=O)(O)O)CC1 | 14.2 µM (inactive) | > 100 µM (inactive) | 22.3 µM (inactive) | 4.49 µM (inactive) | 22.3 µM (inactive) | 53.2 µM (inactive) | 6.89 µM (inactive) | > 100 µM (inactive) | > 100 µM (inactive) | 4.94 µM (inactive) | 11.8 µM (inactive) | 4.15 µM (inactive) | > 100 µM (inactive) | > 100 µM (inactive) | 7.03 µM (inactive) | 4.25 | 2.58 µM (inactive) | > 30.1 µM (inactive) | –
2 | O=C1NC(NCc2ccc(F)cc2)=N/C1=C\c1ccccc1Cl | 7.4 µM (inactive) | 23.6 µM (inactive) | 24.2 µM (inactive) | 13.5 µM (inactive) | 6.97 µM (inactive) | – | 19.6 µM (inactive) | 14.8 µM (inactive) | 23.9 µM (inactive) | – | 26.3 µM (inactive) | 19.2 µM (inactive) | 19.9 µM (inactive) | – | 15.8 µM (inactive) | 19.1 | 13.8 µM (inactive) | 30.5 µM (inactive) | 14.7 µM (inactive)
3 | CS(=O)(=O)Nc1ccc2ccccc2c1 | > 100 µM (inactive) | > 100 µM (inactive) | > 100 µM (inactive) | > 100 µM (inactive) | 87.7 µM (inactive) | 21.1 µM (inactive) | – | > 100 µM (inactive) | > 100 µM (inactive) | > 100 µM (inactive) | > 100 µM (inactive) | > 100 µM (inactive) | > 100 µM (inactive) | > 100 µM (inactive) | > 100 µM (inactive) | > 100 | > 100 µM (inactive) | > 100 µM (inactive) | > 100 µM (inactive)
4 | Cn1c(=O)n(-c2c3ccccc3c(Cl)c3ccccc23)n(C(C)(C)C)c1=O | 12.1 µM (inactive) | > 100 µM (inactive) | 59.8 µM (inactive) | > 100 µM (inactive) | 57.7 µM (inactive) | > 100 µM (inactive) | – | > 100 µM (inactive) | > 100 µM (inactive) | > 100 µM (inactive) | > 100 µM (inactive) | > 100 µM (inactive) | > 100 µM (inactive) | > 100 µM (inactive) | > 100 µM (inactive) | > 100 | > 100 µM (inactive) | 41.3 µM (inactive) | > 100 µM (inactive)
5 | O=c1cc(-c2ccccc2F)[nH]c2cc3c(cc12)OCO3 | 0.247 µM (active) | > 32.9 µM (inactive) | 0.504 µM (active) | 0.0356 µM (active) | 0.212 µM (active) | 0.711 µM (active) | 0.0813 µM (active) | 0.281 µM (active) | – | 0.129 µM (active) | 0.201 µM (active) | 0.118 µM (active) | 0.0399 µM (active) | 0.35 µM (active) | 0.1 µM (active) | 0.0417 | 0.0402 µM (active) | 0.0728 µM (active) | 0.119 µM (active)
6 | CC(=O)N(C)SCC(NC(=O)C(Cc1ccccc1)NC(=O)OCC1c2ccccc2-c2ccccc21)C(=O)NC(Cc1ccccc1)C(=O)NC(Cc1cn(C=O)c2ccccc12)C(=O)NC(CCCCNC(=O)OCC1c2ccccc2-c2ccccc21)C(=O)NC(C(=O)NC(CSN(C)C(C)=O)C(=O)NC(C(N)=O)C(C)O)C(C)O (stereo unspecified) (Fmoc-F[X31]FW(For)K(Fmoc)T[X31]T-NH2; configuration not given here) | 33.1 µM (inactive) | > 100 µM (inactive) | > 100 µM (inactive) | > 100 µM (inactive) | 14.5 µM (inactive) | 16.2 µM (inactive) | 20.5 µM (inactive) | > 100 µM (inactive) | – | > 100 µM (inactive) | 37.2 µM (inactive) | 66.4 µM (inactive) | > 100 µM (inactive) | 20.8 µM (inactive) | 40.6 µM (inactive) | 95.1 | 89.7 µM (inactive) | > 100 µM (inactive) | > 100 µM (inactive)
